51 compounds from PubChem BioAssay AID1996 can be followed below.

≈ marks a conversion by molar mass, not a printed value.

The conditions of this data set: buffer; pH 7.4; 200.0 µM.
For orientation: solubility (kinetic) means solubility judged after dilution from a stock solution rather than from solid. `COc1cc(CNc2nc3ccccc3s2)cc(OC)c1OC`: the solubility (kinetic) came out at 48.4 µg/mL (≈ 146 µM).
As for `CCN(CC)CC#Cc1ccc(C)cc1.Cl`, the solubility (kinetic) turned out to be 17.1 µg/mL.
The value for `CCC(C)(CC(=O)Nc1nccs1)c1ccccc1` (stereo unspecified) was above 41.2 µg/mL.
For `Cc1ccc2nc(SC(C)C(=O)N3CCOCC3)[nH]c2c1` (stereo unspecified) the value was 38.3 µg/mL (≈ 125 µM).
For `Cc1cccc(C)c1NC(=O)C1CCN(S(C)(=O)=O)CC1` the value was above 46.6 µg/mL; for `COc1ccc2oc(C(=O)OCC(=O)N3C(C)CCCC3C)c(C)c2c1` (stereo unspecified), 31.9 µg/mL (≈ 88.8 µM); for `Oc1ccc2ccccc2c1C=Nc1ccccc1Br`, below 0.7 µg/mL.
Regarding `CC(=C\c1ccccc1)/C=C1/SC(=S)N(CCC(=O)O)C1=O`, the solubility (kinetic) is 34.7 µg/mL (≈ 104 µM).
For `O=C(COC(=O)C1=COCCO1)Nc1ccccc1OC(F)F`, the kinetic solubility is above 49.4 µg/mL.
For `Cc1csc(SCC(=O)NCc2ccccc2)n1` the value was above 41.8 µg/mL.
For `Nc1ccccc1C(=O)NC1CCCCNC1=O` (stereo unspecified) the value was above 37.1 µg/mL.
In the case of `COc1ccc(NC(=O)C2CC(c3c(F)cccc3Cl)=NO2)cc1` (stereo unspecified), the solubility (kinetic) came to 40.8 µg/mL (≈ 117 µM).
For `C=CC(=O)NC(C)(C)CCN1CCOCC1` the value was above 33.9 µg/mL; for `Cn1c(O)c(/C=N/NC(=O)c2ccncc2)c(=O)n(C)c1=S`, above 47.9 µg/mL; for `O=S(=O)(c1ccc(Cl)nc1)N1CCN(c2ncccn2)CC1`, 1 µg/mL (≈ 2.94 µM).
With `O=C(NCc1cccnc1)C1CC(c2ccccc2O)=NO1` (stereo unspecified), the solubility (kinetic) was above 44.6 µg/mL.
`Cc1c(C)c2ccc(OCC(=O)N3CCN(Cc4ccccc4)CC3)cc2oc1=O.Cl` displayed a kinetic solubility of 2.5 µg/mL.
The compound `COc1ccc(C(=O)Nc2cccc(OC(=O)c3ccco3)c2)cc1` had a kinetic solubility of 3.2 µg/mL (≈ 9.49 µM).
For `Cc1ccc[n+](CC(=O)Nc2ccc(N(C)C)cc2)c1.[Cl-]` the value was above 45.9 µg/mL; for `CC1CCC2(CC1)NC(=O)N(CC(=O)NCc1ccc3c(c1)OCO3)C2=O` (stereo unspecified), 6.1 µg/mL (≈ 16.3 µM); for `Cc1ccc(NC(=S)NC(=O)C2CC2)c(C)c1`, 5.9 µg/mL (≈ 23.8 µM).
In turn, `CCOc1ccc(OCC(=O)OC(C)C(=O)NC2CCCC2)cc1` (stereo unspecified) displayed a kinetic solubility above 50.3 µg/mL.
For `CC(=O)c1ccc(N2CCN(C(=S)NCCCN(C)C)CC2)cc1` the value was above 52.3 µg/mL; for `Cc1cc(F)c(F)c(C(=O)N2CCCCC2C)c1Cl` (stereo unspecified), 34.6 µg/mL (≈ 120 µM).
For `Cc1c(C(=O)N2CCC(C)CC2)cccc1[N+](=O)[O-]` the value was above 39.3 µg/mL; for `CCOc1ccccc1NC(=O)c1ccc([N+](=O)[O-])cc1`, 2.7 µg/mL (≈ 9.43 µM); for `CN(CC(=O)Nc1ccc2c(c1)OCO2)CC(=O)Nc1ccc(F)c(F)c1F`, above 59.3 µg/mL.
The compound `N/C(Cc1ccc([N+](=O)[O-])cc1)=N\OC(=O)c1ccccc1F` came in with a kinetic solubility of 2.6 µg/mL (≈ 8.19 µM).
As to `Cc1ccc(N2C(=O)N(C(C)C)C(C)(C)CC2(C)O)cc1` (stereo unspecified), the kinetic solubility was above 43.6 µg/mL.
`O=C1NC(=O)C(c2ccc(F)cc2)N1` (stereo unspecified) came in with a solubility (kinetic) above 29.1 µg/mL.
In turn, `COc1ccc(C2=NC(C)(C)Cc3cc(OC)c(OC)cc32)cc1` yielded a kinetic solubility above 48.8 µg/mL.
For `COc1cccc(-c2nc3ccc([N+](=O)[O-])cc3o2)c1` the value was below 0.3 µg/mL; for `Cc1ccccc1S(=O)(=O)/N=C(/Nc1nc2ccccc2s1)c1ccccc1`, 1.1 µg/mL (≈ 2.7 µM).
`CCOc1cc2c3c(c1)C(C)=CC(C)(C)N3C(=O)C2=O` had a solubility (kinetic) below 0.6 µg/mL.
Turning to `Oc1c(Cl)cc(Cl)cc1CNc1ccccn1`, the solubility (kinetic) came to 3.1 µg/mL (≈ 11.5 µM).
Compound `Cc1ccc(/C=N/NC(=O)CN2CCN(Cc3ccccc3Cl)CC2)o1` gave a solubility (kinetic) above 56.2 µg/mL.
`CCNC(=S)N1CCC(NC(=O)c2ccco2)CC1` showed a solubility (kinetic) above 42.2 µg/mL.
The value for `Cc1ccc(C(=O)O/N=C(\N)c2ccccn2)cc1` was 6.9 µg/mL (≈ 27 µM).
For `CC(=O)NS(=O)(=O)c1ccc(NC(=S)NC(=O)C2CCC2)cc1` the value was above 53.3 µg/mL; for `CCOC(=O)C(NC(=O)C1C(C)N1S(=O)(=O)c1ccc(C)cc1)C(=O)OCC` (stereo unspecified), above 61.9 µg/mL; for `O=C(Nc1ccccc1N1CCCC1)C1CCCO1` (stereo unspecified), above 39.1 µg/mL.
For `O=[N+]([O-])c1ccc(NCCOc2ccccc2Cl)nc1` the value was 1.7 µg/mL (≈ 5.79 µM).
With `Cc1ccc(N/C=C2\CCCCC2=O)nc1`, the solubility (kinetic) stood at 31.6 µg/mL (≈ 146 µM).
`CSC1=N/C(=C/c2cccnc2)C(=O)N1Cc1ccccc1` showed a solubility (kinetic) of 5.2 µg/mL (≈ 16.8 µM). Against the preceding compound, the solubility kinetic is about 6.1-fold lower.
For `Cc1cnc(NC(=O)CSCc2c(C)noc2C)s1` the value was 19.6 µg/mL (≈ 65.9 µM); for `Cc1cc(C)nc(Nc2ccc(O)cc2)n1`, above 32.3 µg/mL; for `CC(C)(C)c1ccc(C(=O)O/N=C(\N)c2ccccn2)cc1`, 2.4 µg/mL (≈ 8.07 µM).
With `COc1cc(CN2CCC(Cc3ccccc3)CC2)c([N+](=O)[O-])cc1OC`, the solubility (kinetic) came to 33.5 µg/mL (≈ 90.4 µM). This solubility kinetic is about 14-fold higher than that of the compound before.
The value for `O=[N+]([O-])c1ccc(N2CCOCC2)c2cccnc12` was above 38.9 µg/mL; that for `Cc1cc(C)cc(C(=O)NCC(=O)OCC(=O)NC2CCCc3ccccc32)c1` (stereo unspecified) was 8.4 µg/mL (≈ 21.3 µM); that for `COc1cc(OC)cc(C(=O)N[C@H](C(=O)Nc2c(C)n(C)n(-c3ccccc3)c2=O)C(C)C)c1` was above 70 µg/mL.
